The values below come from patent US11459296B2, “Antibacterial compounds” (INFEX Therapeutics Limited, priority 2018, dated 2022).

Data set [1] concerns the target NDM-1 (Klebsiella pneumoniae, UniProt C7C422). Nature of the data set: metallo-β-lactamase inhibition assay (nitrocefin). The data set is classed as biochemical. The conditions noted are these: 1.5 nM NDM-1, 100 μM nitrocefin, 37° C., pH 7.5. As to the method:
Compounds of the invention were tested in a metallo-β-lactamase inhibition assay to investigate mechanism of action of the compounds. Results are reported as the concentration of test article required to inhibit enzyme activity by 50% (IC50).
Inhibition of metallo-β-lactamase enzyme function was performed at 37° C. in buffer at pH 7.5 (50 mM HEPES, 150 mM NaCl, 0.1 mM ZnSO4, 20 μg/mL PEG4000), containing 1.5 nM NDM-1, 100 μM nitrocefin, and a range of concentrations of compound. Absorbance at 490 nm was measured using a BMG LABTECH FLUOstar Omega microplate reader every minute for 30 minutes. IC50S were determined from the average increase in OD per minute versus the Log 10 concentration of compound using GraphPad Prism.

A short description of data set [2]: Cytotoxicity Assay (CellTiter-Glo). The data set is classed as cell-based. The note with it: human, Hep G2 cells (ATCC HB-8065); 24 h exposure, cell viability; read-out: HepG2 CC50. As for the experimental part:
Cytotoxicity was evaluated in human Hep G2 cells (ATCC HB-8065) seeded at a density of 2×10^5 cells per well and incubated for 24 h at 37° C., 5% CO2. Cells were exposed to a doubling dilution series of test article. After 24 h exposure, the viability of the cells was determined using CellTiter-Glo® (Promega, Wis., USA) according to the manufacturer's instructions. Results are reported as the concentration of test article required to reduce cell viability by 50% (CC50).
(In general: Cellular ATP, detected with luciferase, serves as a proxy for viable cell number.)

Data set [3] relates to K. pneumoniae ATCC BAA2146 NDM-1. The data set is described as follows: Meropenem combination MIC, broth microdilution. The data set is classed as cell-based. The note with it: meropenem only (baseline). As to the method:
(§1) MICs were determined by exposing bacteria to serial dilutions of antibacterial agents in MHB-II (cation-adjusted Mueller-Hinton Broth pH 7.4) according to Clinical and Laboratory Standards Institute (CLSI) broth microdilution guidelines (Cockerill et al., 2012).
(§2) Combination MIC were performed as described for MIC determinations with the addition of 4 mg/L test article to MHB-II.
(In general: In broth dilution the organism is exposed to a series of concentrations in liquid medium.)

Data set [4] relates to E. coli NCTC13476 IMP. The data set is described as follows: Meropenem combination MIC, broth microdilution. The data set is classed as cell-based. The note with it: meropenem only (baseline). As for the experimental part: as §1, §2
For data set [5], the system named is K. pneumoniae NCTC13439 VIM-1. The data set is described as follows: Meropenem combination MIC, broth microdilution. The data set is classed as cell-based. The note with it: meropenem only (baseline). As to the method:
as §1, §2

Data set [6] has as its system A. baumannii SG698 NDM-1. Nature of the data set: Meropenem combination MIC, broth microdilution. The data set is classed as cell-based. The conditions noted are these: meropenem only (baseline). As to the method:
as §1, §2

For data set [7], the system named is E. coli ATCCBAA-2452 NDM-1. Nature of the data set: Meropenem combination MIC, broth microdilution. The data set is classed as cell-based. The note with it: meropenem only (baseline). As to the method:
as §1, §2

Data set [8] concerns K. pneumoniae NCTC13440 VIM-1. The data set is described as follows: Meropenem combination MIC, broth microdilution. The data set is classed as cell-based. The conditions noted are these: meropenem only (baseline). As for the experimental part:
as §1, §2

The test system of data set [9] is K. pneumoniae ATCC BAA2146 NDM-1. Nature of the data set: Imipenem combination MIC, broth microdilution. The conditions noted are these: imipenem only (baseline). The data set is classed as cell-based. As to the method:
as §1, §2
(§3) Compounds of the invention were also tested in combination with imipenem.

The test system of data set [10] is E. coli NCTC13476 IMP. Nature of the data set: Imipenem combination MIC, broth microdilution. The data set is classed as cell-based. The note with it: imipenem only (baseline). As for the experimental part: as §1, §2, §3
Data set [11] concerns A. baumannii SG698 NDM-1. Nature of the data set: Imipenem combination MIC, broth microdilution. The data set is classed as cell-based. The note with it: imipenem only (baseline). As to the method: as §1, §2, §3
Data set [12] relates to E. coli ATCCBAA-2452 NDM-1. Nature of the data set: Imipenem combination MIC, broth microdilution. The conditions noted are these: imipenem only (baseline). The data set is classed as cell-based. As to the method:
as §1, §2, §3

Data set [13] deals with K. pneumoniae NCTC13440 VIM-1. Nature of the data set: Imipenem combination MIC, broth microdilution. The data set is classed as cell-based. The conditions noted are these: imipenem only (baseline). As to the method: as §1, §2, §3

Where a name gives a salt, the structure may show the parent alone.

NDM-1, sequence (C7C422 whole entry, looked up, species assumed): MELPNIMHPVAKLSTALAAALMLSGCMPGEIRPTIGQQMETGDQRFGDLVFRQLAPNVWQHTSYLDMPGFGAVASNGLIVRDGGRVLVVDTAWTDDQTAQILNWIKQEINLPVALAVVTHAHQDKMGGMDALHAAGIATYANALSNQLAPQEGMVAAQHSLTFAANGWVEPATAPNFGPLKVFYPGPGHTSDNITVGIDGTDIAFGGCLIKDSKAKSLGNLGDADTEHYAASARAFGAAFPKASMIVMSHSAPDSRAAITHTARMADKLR

Turning to `NS(=O)(=O)n1ccc(-c2cccc3ncccc23)c1C(=O)O` [Example 11, 3-(5-Quinolyl)-1-sulfamoyl-pyrrole-2-carboxylic acid, sodium salt], the IC50 in data set [1] was determined as 4120 nM. Besides, in data set [2], the CC50 at 24 h was over 256 µg/mL.

In the case of `CC(=O)N1CCC(c2ccn(S(N)(=O)=O)c2C(=O)O)CC1` [Example 58, 3-(1-Acetylpiperidin-4-yl)-1-sulfamoyl-1H-pyrrole-2-carboxylic acid], the IC50 in [1] was 1310 nM. In addition, in data set [2], the CC50 at 24 h is over 256 µg/mL.

The compound `NS(=O)(=O)n1ccc(-c2ccc(C3CCNCC3)cc2)c1C(=O)O` [Example 34, 3-[4-(Piperidin-4-yl)phenyl]-1-sulfamoyl-1H-pyrrole-2-carboxylic acid hydrochloride] gave an IC50 in data set [1] of 151 nM. Moreover, the CC50 at 24 h in data set [2] is over 256 µg/mL.

For `Cn1cc(-c2ccn(S(N)(=O)=O)c2-c2nnn[nH]2)cn1` [Example 76, 3-(1-Methyl-1H-pyrazol-4-yl)-2-(1H-tetrazol-5-yl)-1H-pyrrole-1-sulfonamide], half-maximal inhibition in [1] (IC50) was put at 1180 nM. Further, the CC50 at 24 h in data set [2] was over 256 µg/mL.

`Nc1cncc(-c2ccn(S(N)(=O)=O)c2C(=O)O)c1` [Example 22, 3-(5-Amino-3-pyridyl)-1-sulfamoyl-pyrrole-2-carboxylic acid] yielded an IC50 in [1] of 2090 nM. Further, the CC50 at 24 h in data set [2] is over 256 µg/mL.

On to `NS(=O)(=O)n1ccc(-c2cccnc2)c1C(=O)O` [Example 8, 3-(Pyridin-3-yl)-1-sulfamoyl-1H-pyrrole-2-carboxylic acid, sodium salt], for which, in data set [1], the IC50 amounted to 448 nM. Besides, in [2], the CC50 at 24 h is over 256 µg/mL.

`NS(=O)(=O)n1ccc(-c2ccncc2)c1C(=O)O` [Example 9, 3-(Pyridin-4-yl)-1-sulfamoyl-1H-pyrrole-2-carboxylic acid, sodium salt]: half-maximal inhibition in data set [1] (IC50) required 1350 nM. Also, the CC50 at 24 h in [2] is over 256 µg/mL.

On to `C[C@@H](O)[C@H]1C(=O)N2C(C(=O)O)=C(S[C@@H]3CN[C@H](C(=O)N(C)C)C3)[C@H](C)[C@H]12` [Meropenem, meropenem], for which the “Meropenem MIC (μg/mL) III K. pneumoniae ATCC BAA2146 NDM-1” value in data set [3] stood at 16 µg/mL. For the same compound, the “Meropenem MIC (μg/mL) II E. coli NCTC13476 IMP” value in data set [4] is 4 µg/mL. The “Meropenem MIC (μg/mL) VII K. pneumoniae NCTC13439 VIM-1” value in [5] worked out at 0.5 µg/mL. In data set [6], the “Meropenem MIC (μg/mL) IV A. baumannii SG698 NDM-1” value was found to be 8 µg/mL. Besides, the “Meropenem MIC (μg/mL) I E. coli ATCCBAA-2452 NDM-1” value in data set [7] was found to be 1 µg/mL. Also, the “Meropenem MIC (μg/mL) V K. pneumoniae NCTC13440 VIM-1” value in data set [8] was found to be 1 µg/mL.

On to `NCCNS(=O)(=O)c1ccc(-c2ccn(S(N)(=O)=O)c2C(=O)O)cc1` [Example 36, 3-{4-[(2-Aminoethyl)sulfamoyl]phenyl}-1-sulfamoyl-1H-pyrrole-2-carboxylic acid], for which half-maximal inhibition in data set [1] (IC50) was put at 1010 nM. Further, in [2], the CC50 at 24 h was over 256 µg/mL.

Turning to `NS(=O)(=O)n1ccc(-c2ccc(F)cc2)c1C(=O)O` [Example 18, 3-(4-Fluorophenyl)-1-sulfamoyl-pyrrole-2-carboxylic acid, sodium salt], the IC50 in data set [1] is 725 nM. Also, the CC50 at 24 h in data set [2] was over 256 µg/mL.

In the case of `Nc1ccc(-c2ccn(S(N)(=O)=O)c2-c2nnn[nH]2)cn1` [Example 77, 3-(6-Aminopyridin-3-yl)-2-(1H-tetrazol-5-yl)-1H-pyrrole-1-sulfonamide], the IC50 in data set [1] is 506 nM. Also, the CC50 at 24 h in data set [2] was over 256 µg/mL.

In turn, `NS(=O)(=O)n1ccc(OCC2CC2)c1C(=O)O` [Example 72, 3-(Cyclopropylmethoxy)-1-sulfamoyl-pyrrole-2-carboxylic acid, Sodium Salt] gave an IC50 in [1] of 3890 nM. Besides, the CC50 at 24 h in data set [2] was over 256 µg/mL.

`NS(=O)(=O)n1ccc(-c2ccc(=O)[nH]c2)c1C(=O)O` [Example 52, 3-(6-Oxo-1,6-dihydropyridin-3-yl)-1-sulfamoyl-1H-pyrrole-2-carboxylic acid, Sodium Salt]: the IC50 in [1] is 2690 nM. Also, the CC50 at 24 h in data set [2] is over 256 µg/mL.

With `C[C@@H](O)[C@H]1C(=O)N2C(C(=O)O)=C(SCCN=CN)C[C@H]12` [Imipenem, imipenem], the “Imipenem MIC III K. pneumoniae ATCC BAA2146 NDM-1” value in data set [9] is on record as “E (E≤40)”. Moreover, the “Imipenem MIC II E. coli NCTC13476 IMP” value in data set [10] is listed as “C (C≤5)”. The “Imipenem MIC IV A. baumannii SG698 NDM-1” value in data set [11] is given as “F (F≤80)”. Also, the “Imipenem MIC I E. coli ATCCBAA-2452 NDM-1” value in data set [12] was “D (D≤10)”. The “Imipenem MIC V K. pneumoniae NCTC13440 VIM-1” value in data set [13] is “D (D≤10)”.

In the case of `NCC(=O)N1CCC(c2ccn(S(N)(=O)=O)c2C(=O)O)CC1` [Example 62, 3-[1-(2-Aminoacetyl)-4-piperidyl]-1-sulfamoyl-pyrrole-2-carboxylic acid], in data set [1], 1300 nM corresponded to half-maximal inhibition (IC50). Also, the CC50 at 24 h in data set [2] is over 256 µg/mL.

For `NS(=O)(=O)n1ccc(-n2cccc2)c1C(=O)O` [Example 73, 3-Pyrrol-1-yl-1-sulfamoyl-pyrrole-2-carboxylic acid, Sodium Salt], in data set [1], the IC50 is 2570 nM. Besides, in [2], the CC50 at 24 h is over 256 µg/mL.

For the compound `NS(=O)(=O)n1ccc(-c2ccc(NS(=O)(=O)C3CC3)cc2)c1C(=O)O` [Example 23, 3-[4-(Cyclopropylsulfonylamino)phenyl]-1-sulfamoyl-pyrrole-2-carboxylic acid], the IC50 in [1] was 548 nM. Besides, the CC50 at 24 h in [2] is over 256 µg/mL.

`NS(=O)(=O)n1ccc(-c2cccc(F)c2)c1C(=O)O` [Example 19, 3-(3-Fluorophenyl)-1-sulfamoyl-pyrrole-2-carboxylic acid] gave an IC50 in data set [1] of 1530 nM. In addition, the CC50 at 24 h in data set [2] is over 256 µg/mL.

Turning to `Nc1ncc(-c2ccn(S(N)(=O)=O)c2C(=O)O)cc1F` [Example 21, 3-(6-Amino-5-fluoro-3-pyridyl)-1-sulfamoyl-pyrrole-2-carboxylic acid], in data set [1], the IC50 worked out at 3360 nM. In addition, the CC50 at 24 h in [2] is over 256 µg/mL.

With `CS(=O)(=O)c1ccc(-c2ccn(S(N)(=O)=O)c2C(=O)O)cc1` [Example 5, 3-(4-Methanesulfonylphenyl)-1-sulfamoyl-1H-pyrrole-2-carboxylic acid, sodium salt], 444 nM corresponded to half-maximal inhibition in data set [1] (IC50). The CC50 at 24 h in [2] was over 256 µg/mL.

In turn, `Cn1cc(-c2ccn(S(N)(=O)=O)c2C(=O)O)cn1` [Example 6, 3-(1-Methyl-1H-pyrazol-4-yl)-1-sulfamoyl-1H-pyrrole-2-carboxylic acid, sodium salt] registered an IC50 in data set [1] of 2860 nM. Moreover, in data set [2], the CC50 at 24 h is over 256 µg/mL.

`Nc1ccc(-c2ccn(S(N)(=O)=O)c2C(=O)O)cn1` [Example 1, 3-(6-Aminopyridin-3-yl)-1-sulfamoyl-1H-pyrrole-2-carboxylic acid] returned an IC50 in data set [1] of 826 nM. Moreover, the CC50 at 24 h in data set [2] is over 256 µg/mL.

As to `Cn1c(N)nc2c(-c3ccn(S(N)(=O)=O)c3C(=O)O)cccc21` [Example 46, 3-(2-Amino-1-methyl-benzimidazol-4-yl)-1-sulfamoyl-pyrrole-2-carboxylic acid hydrochloride], in data set [1], half-maximal inhibition (IC50) was put at 2790 nM. Besides, the CC50 at 24 h in [2] was over 256 µg/mL.

By IC50 is commonly meant the point on the concentration scale where inhibition reaches its midpoint. A higher IC50 goes with weaker potency. For orientation: CC50 means the concentration giving 50% cytotoxicity.
